Experiments:
TNF-α, IL-1β, and IL-6 = assay: Pro-inflammatory cytokine mRNA (RT-PCR) in LPS-stimulated BV-2 cells; format: cell-based, mouse; conditions: BV-2, 30, 10, or 3.33 μM, LPS 1 μg/mL 6 hours, FIG. 5B
Description: (§1) BV-2 was plated in a 6-well plate (Corning, MD, USA) at 5×10^5 cells/well, and cultured using a DMEM medium (Corning, MD, USA) containing 10% fetal bovine serum (Corning, MD, USA) and 100 U/mL of penicillin/streptomycin (Corning, MD, USA) at 37° C. in a 5% CO2 incubator for one day for stabilization. […] 1 μg/mL of LPS (Sigma, USA) was added to all experimental groups excluding the non-inflammation-induced group and allowed to react at 37° C. in a 5% CO2 incubator for 6 hours.
The drug-treated BV-2 underwent RNA prep according to kit manual using an RNA prep kit (Monarch Total RNA Miniprep kit, NEB, UK), and the concentration was measured using a nanophotometer (NP80, Implen, Germany). According to the concentration of each RNA sample, 1 μg of RNA was added and cDNA was synthesized according to the manual of the cDNA synthesis kit (LunaScript RT SuperMix kit, NEB, UK).
(§2) The expression level of each cytokine in the synthesized cDNA was analyzed and compared using Real-Time PCR (StepOne™Bioscience, USA) equipment. […] The Cr value for the gene of each sample obtained through real-time PCR was normalized by the value of the internal control gene (GAPDH) of each sample, the expression level was estimated inversely by 2ΔΔCT calculation, and the resulting value of each group was quantified and expressed as a percentage relative to the LPS-only treatment group.

iNOS and COX-2 = iNOS and COX-2 mRNA (RT-PCR) in LPS-stimulated BV-2 cells; format: cell-based, mouse; conditions: BV-2, 30, 10, or 3.33 μM, LPS 1 μg/mL 6 hours, FIG. 6D
Description: as §1, with “Finally, to determine the mRNA expression levels of iNOS and COX-2, BV-2” for “BV-2”, “seeded” for “plated”
The drug-treated BV-2 underwent RNA prep according to the kit manual using an RNA prep kit (Monarch Total RNA Miniprep kit, NEB, UK), and the concentration was measured using a nanophotometer (NP80, Implen, Germany). […]
as §2, with “oxidative stress-associated gene” for “cytokine”

[1] = Stability in human plasma (UPLC-MS quantification); format: in vitro ADME; conditions: FIG. 7B
Description: To plot a standard calibration curve, the stock sample was diluted by half with acetonitrile from 125 to 0.39 μg/mL to prepare standard solutions for a total of 10 samples at different concentrations, and the calibration curve was plotted as shown in FIG. 7A.
For the experiment of verifying stability in plasma, 10 μL of the test drug prepared at a concentration of 100 μg/mL was added to 90 μL of human plasma and mixed for 30 seconds, and then immediately after the addition, the plasma-mixed test drug was incubated for 15, 30, 60, or 120 minutes to prepare samples. Afterward, 400 μL of 100% ethyl acetate was added to each sample and extracted using a vortex mixture for 1 minute. […] Initially, the mobile phase B was increased from 5% to 95% until 9 minutes and analyzed, the mobile phase B was maintained 95% until 12 minutes, and then the mobile phase B was lowered to 5% and equilibrated, and used in the subsequent analysis. the flow rate of the mobile phase was 0.3 mL/min, the sample injection volume was 2 μL, and the mass spectrometer was operated in the ESI-positive mode. The spray voltage was set to 3.5 kV, and the flow rates of the nitrogen sheath gas, auxiliary gas, and sweep gas were analyzed as 50, 10, and 1 (arbitrary units), respectively. […]

- plasma level immediately after plasma addition ([1]; 0 minutes): 80 µg/mL
Compound: Nc1cccc2c1C(=S)N(C1CCC(=O)NC1=O)C2=O (stereo not shown) [3-MP, 3-thiopomalidomide]
- pro-inflammatory cytokine inhibition effect (mRNA) (TNF-α, IL-1β, and IL-6): higher pro-inflammatory cytokine inhibition effect than pomalidomide
- mRNA expression of oxidative stress-associated genes (iNOS and COX-2) (iNOS and COX-2): can effectively inhibit the mRNA expression of an oxidative stress-associated gene
- stability in human plasma over time ([1]; 0 to 120 minutes): maintained without significant changes in plasma from 0 to 120 minutes
